This is an account of results in PMC9964319, “Half-Sandwich Rhodium Complexes with Releasable N-Donor Monodentate Ligands: Solution Chemical Properties and the Possibility for Acidosis Activation” (Pharmaceutics, 2023).

The term MIC denotes the lowest concentration found to suppress growth. As a reminder, the IC50 is the midpoint of a concentration-inhibition curve.

Series [1] is described as follows: Proton dissociation constants of the coordinated water in [M(arene)(N,N/O)(H2O)]2+/+ complexes (UV-vis titration). From the text: The proton dissociation of the aqua ligand in the [M(arene)(N,N/O)(H2O)]^2+/+ complexes (Scheme 2) results in the inert mixed-hydroxido species (general formula: [M(arene)(N,N/O)(OH)]^+/0).
The subject of series [2] is E. coli ATCC 25922 (sensitive). As to the kind of experiment: Antibacterial assay, MIC in 96-well plates at different pH. Format: cell-based. To be noted: E. coli sensitive, after one day, read-out: MIC. From the text:
(§1) The antibacterial effect was studied in two Gram-positive and in two Gram-negative strains. The Gram-positive S. aureus ATCC 25923 (ATCC, Manassas, VA, USA) is a methicillin-susceptible reference bacterial strain, while S. aureus 272123 is a clinical isolate and resistant to methicillin and ofloxacin (MRSA), which was given by Prof. Dr. Leonard Amaral (Institute of Hygiene and Tropical Medicine, Lisbon, Portugal). The Gram-negative strains were E. coli ATCC 25922 (ATCC, Manassas, VA, USA), which is sensitive to antibiotics, and E. coli 32313 (provided by the Institute of Clinical Microbiology, University of Szeged, Hungary), which is resistant to different antibiotics (trimethoprim/sulfamethoxazole, gentamicin, ciprofloxacin, and norfloxacin).
(§2) The minimum inhibitory concentrations (MICs) of the compounds were determined in 96-well plates based on the Clinical and Laboratory Standard Institute guidelines. The compounds were diluted in 100 μL of Mueller Hinton broth. Then, an overnight bacterial culture diluted 10,000 times in 100 μL of medium was added to each well, with the exception of the medium control wells. For each strain and each tested compound, four pH values were set (5, 6, 7, and 8). Each sample was triplicated.

The test system of series [3] is S. aureus ATCC 25923 (methicillin-susceptible). Described as above. The format is cell-based. To be noted: S. aureus sensitive, after one day, read-out: MIC.
Text: as §1, §2

The subject of series [4] is E. coli 32313 (resistant). Described as above. The format is cell-based. To be noted: E. coli resistant, after one day, read-out: MIC.
Text: as §1, §2

For another series, the system named is S. aureus 272123 (MRSA). Described as above. The format is cell-based. As to conditions: read-out: MIC.
Text: as §1, §2

Series [5] deals with Colo320 human colon adenocarcinoma cell line (doxorubicin-resistant). Description: MTT assay, cytotoxicity at pH 6 and 7. The format is cell-based. To be noted: Colo320, 72 h incubation, read-out: IC50. As for the experimental part:
(§3) All cell culture reagents were obtained from Sigma-Aldrich (Merck KGaA, Darmstadt, Germany) and plasticware from Sarstedt (Nümbrecht, Germany). Human colonic adenocarcinoma cell lines Colo205 (catalog number: ATCC-CCL-222) and its doxorubicin-resistant counterpart Colo320 (catalog number: ATCC-CCL-220.1) were purchased from LGC Promochem (Teddington, UK). The cells were cultured in RPMI 1640 medium supplemented with 10% heat-inactivated fetal bovine serum, 2 mM L-glutamine, 1 mM sodium pyruvate, and 100 mM HEPES buffer, adjusting the pH to 6.0 or 7.0. The cells were incubated at 37 °C in a 5% CO2–95% air atmosphere. The semiadherent human colon cancer cells were detached with Trypsin-Versene solution for 5 min at 37 °C.
(§4) The solutions were freshly prepared prior to measurements (see Section 2.1). […] Firstly, these samples were diluted in complete culture medium; then, two-fold serial dilutions of the compounds were prepared in 100 μL of RPMI 1640, horizontally. The semiadherent colonic adenocarcinoma cells were treated with Trypsin-Versene solution. They were adjusted to a density of 1 × 10^4 cells in 100 μL of RPMI 1640 medium and were added to each well, with the exception of the medium control wells. The final volume of the wells containing compounds and cells was 200 μL. Samples were triplicated. The pH of the medium was adjusted to 6.0 or 7.0.
(§5) The culture plates were incubated at 37 °C for 72 h; at the end of the incubation period, 20 μL of MTT solution (from a stock solution of 5 mg/mL) was added to each well. After incubation at 37 °C for 4 h, 100 μL of SDS solution (10% in 0.01 M HCI) was added to each well, and the plates were further incubated at 37 °C overnight. Cell growth was determined by measuring the optical density (OD) at 540/630 nm with a Multiscan EX ELISA reader (Thermo Labsystems, Cheshire, WA, USA). […] Curves were fitted using GraphPad Prism software (2022, version 9.4.1, Graphpad Software (LLC) d.b.a Dotmatics, San Diego, CA, USA) using the sigmoidal dose–response model (comparing variable and fixed slopes).
(§6) The pH-dependent solution speciation of the selected mixed-ligand complexes is an important feature in the hypothesized mechanism of action, and the modeling of acidosis is necessary for the in vitro anticancer assays. In order to find out the cytotoxicity difference based on the pH of the medium, cytotoxic activity was determined at pH 6 and 7 by MTT assay in two human colon adenocarcinoma cell lines (doxorubicin-sensitive Colo205 and doxorubicin-resistant Colo320). […] The mixed-ligand complexes were prepared prior to the measurements, as was already described in Section 2.1. With this method, the effect of the different counter ions could be avoided, and a more adequate comparison of the mixed-ligand complexes could be conducted.
On the technique in general: Formazan colour is commonly taken as a measure of viable cells.

Series [6] relates to Colo205 human colon adenocarcinoma cell line (doxorubicin-sensitive). Description: MTT assay, cytotoxicity at pH 6 and 7. Format: cell-based. To be noted: Colo205, 72 h incubation, read-out: IC50. As for the experimental part:
as §3, §4, §5, §6

Series [7] in a line: Formation constants of mixed-ligand half-sandwich complexes (UV-vis and 1H NMR). Format: physicochemical. To be noted: aqua complex + monodentate ligand; I = 0.10 M (KCl); t = 25.0 °C; UV-vis and 1H NMR. As for the experimental part:
NMR spectroscopic studies were carried out on a Bruker Avance III HD Ascend 500 Plus instrument. For the aqueous samples, ^1H NMR spectra were recorded with the WATERGATE water suppression pulse scheme using DSS internal standard. The highest peak of DSS was 0.00 ppm. The measurement was very similar to the UV-vis measurement since the complex–to–monodentate ligand ratio was also between 0–10 equivalents; the spectra were recorded after the given waiting time. […] This technique was useful in those cases where no spectral change was visible during the UV-vis titrations.
In both measurement methods, the formation constant (K) was obtained using the computer program PSEQUAD [38].
It is worthwhile to mention that the liberation of the bidentate ligand was not detected even at higher monodentate ligand excess (~10), which means that the disruption of the bond between the bidentate ligand and the metal center is not feasible under these conditions. The calculated formation constants are compared in Figure 5 and are collected in Table S2. The formation of the mixed-ligand complexes was not detected in three cases under the applied conditions, namely [Ru(p-cym)(en)(mim)]^2+, [Ru(p-cym)(phen)(mim)]^2+, and [Ru(p-cym)(en)(Py)]^2+. For these complexes, only a higher limit of the formation constant could be given, assuming that a maximum of 5% of the complex would form (limit of detection) under the conditions used for ^1H NMR spectroscopy. Based on Figure 5, the following trends are observed in the formation constants: (i) [RhCp*(en)(H2O)]^2+ and [RhCp*(phen)(H2O)]^2+ have a stronger monodentate ligand-binding ability than the Ru(p-cym) analogs; (ii) the formation constants of the [Ru(p-cym)(8HQH-1)(N)]^+ complexes are similar or somewhat higher than those of the RhCp* analogs; (iii) a stability trend for the monodentate ligand: mim > bim > Py (iv) and the bidentate ligand: 8HQH-1 > phen ≥ en can be seen.

Series [8] in a line: Computed fractions of mixed-ligand complexes as function of pH from formation constants. The format is physicochemical. To be noted: for fraction of the active form (computed): pH 6.0. On the procedure: With the help of these formation constants, the extent of complex formation can be estimated for a chosen monodentate ligand—complex chemical system under the desired conditions (concentration and pH). Figure 6 and Figure S25 show the computed fractions of the formed, mixed-ligand complexes between pH = 5 and 8 and at a 100 μM concentration (metal complex-to-monodentate ligand ratio = 1:1). The fraction at pH = 7.4 and at pH 6.0–6.7 were compared to each other.
As an example, the fractions of [Ru(p-cym)(8HQH−1)(mim)]^+ are shown in Figure S26 with decreasing concentration.
Formation constants shown in Figure 5 and in Table S2 were used for the calculation. Percentages indicate the fraction at pH = 7.4 (blue line) and in the range between pH = 6.0–6.7 (pink rectangle: possible pH of tumor microenvironment during acidosis).

The mark [9] stands for this setting: pH 6, listed as [RhCp*(phen)Cl]Cl +Py.
Setting [10] is: pH 7, listed as [RhCp*(phen)Cl]Cl +Py.
[11] abbreviates: I = 0.10 M (KCl), t = 25.0 °C, UV-vis.

Where two headings read alike, the source gives them in different places.

In the case of `Cc1c(C)c(C)[c-](C)c1C.O.[O-]c1cccc2cccnc12.[Rh+3]` [[RhCp*(8HQH-1)(H2O)]+], in series [1], the “pKa of the coordinated water molecule” value was 10.6±0.1.
Take `Cc1c(C)c(C)[c-](C)c1C.[Cl-].[Rh+2][O]c1cccc2cccnc12.c1ccncc1` [[RhCp*(8HQH−1)Cl] +Py]: the MIC in series [2] (pH 6) was above 100 µM; in series [2] (pH 7) it was above 100 µM; in [3] (pH 7), 12.5 µM; in series [4] (pH 6) it was above 100 µM; in series [4] (pH 7), above 100 µM; with S. aureus 272123 (MRSA) (pH 6, after one day), 50 µM. In addition, the MIC in the series with S. aureus 272123 (MRSA) (pH 7, after one day) amounted to 12.5 µM. The IC50 in series [5] (pH 6) was determined as 6.2 ± 0.5 µM; in series [5] (pH 7), 5.9 ± 0.1 µM; in series [6] (pH 6) it was 7.2 ± 0.4 µM; in [6] (pH 7), 7.3 ± 0.3 µM. For the same compound, in [7], the “Formation constant logK of mixed-ligand complex” value (shortened to “Formation constant logK”) was determined as 3.0 ± 0.1.
With `Cc1c(C)c(C)[c-](C)c1C.[Rh+3].c1ccncc1.c1cnc2c(c1)ccc1cccnc12` [[RhCp*(phen)(Py)]^2+], the MIC in [2] (pH 5), in series [2] (setting [9]), in [2] (setting [10]), in series [2] (pH 8), in series [3] (setting [10]) and in [3] (pH 8) was above 100 µM throughout. The MIC in [4] (pH 5) is above 100 µM; in series [4] (setting [9]), above 100 µM; in series [4] (setting [10]), above 100 µM; in series [4] (pH 8), above 100 µM; with S. aureus 272123 (MRSA) (pH 5, after one day) it was above 100 µM; with S. aureus 272123 (MRSA) (pH 6, after one day, listed as [RhCp*(phen)Cl]Cl +Py), above 100 µM. Also, the MIC with S. aureus 272123 (MRSA) (pH 7, after one day, listed as [RhCp*(phen)Cl]Cl +Py) is above 100 µM; with S. aureus 272123 (MRSA) (pH 8, after one day), above 100 µM. The “Formation constant logK” value in series [7] is recorded as 4.1 ± 0.1.
For `Cc1ccc(C(C)C)cc1.O.[O-]c1cccc2cccnc12.[Ru+2]` [[Ru(p-cym)(8HQH-1)(H2O)]+], in [1] (setting [11]), the “pKa of the coordinated water molecule” value was 9.31±0.01.
In the case of `Cc1ccc(C(C)C)cc1.Cn1ccnc1.[O-]c1cccc2cccnc12.[Ru+2]` [[Ru(p-cym)(8HQH−1)(mim)]^+], the “difference in computed fraction (dissociated) when pH decreases from 7.4 to 6.0” value in series [8] (100 μM, ratio 1:1) worked out at 10%. Besides, the “fraction of the active form (computed)” value came to 5% in series [8] (concentration 1 mM) and 41% in [8] (concentration two orders of magnitude below 1 mM).
Take `Cc1ccc(C(C)C)cc1.NCCN.O.[Ru+2]` [[Ru(p-cym)(en)(H2O)]2+]: the “pKa of the coordinated water molecule” value in series [1] (setting [11]) turned out to be 9.03±0.01.
Still for that read-out and setting: as for `Cc1ccc(C(C)C)cc1.O.[Ru+2].c1cnc2c(c1)ccc1cccnc12` [[Ru(p-cym)(phen)(H2O)]2+], the figure is 8.91±0.01.
As for `Cc1ccc(C(C)C)cc1.[Ru+][O]c1cccc2cccnc12.c1ccc2[nH]cnc2c1` [[RuCym(8HQH-1)(H2O)]+ + bim], the “Formation constant logK” value in series [7] came to 2.9 ± 0.1.
Consider `Cc1ccc(C(C)C)cc1.NCCN.[Ru+2].c1ccc2[nH]cnc2c1` [[RuCym(en)(H2O)]2+ + bim], for which, in [7], the “Formation constant logK” value amounted to 3.5 ± 0.1.
